In patent publication US9976141B2, “Compositions and methods for inhibiting gene expression of Hif2alpha” (Arrowhead Madison Inc., priority 2015, dated 2018):

tested on: human (tumor) Hif2α (EPAS1) mRNA; assay: Hif2α knockdown in orthotopic RCC tumor bearing mice, single injection of RNAi trigger-delivery polymer conjugate, RT-qPCR (Table 7); type: in vivo; conditions: RNAi trigger 80 μg, polymer 126 400 μg; single tail vein injection; relative to isotonic glucose
Protocol: A pCR3.1 expression vector expressing the reporter gene secreted alkaline phosphatase (SEAP) under the CMV promoter was prepared by directional cloning of the SEAP coding sequence PCR amplified from Clontech's pSEAP2-basic vector. Convenient restriction sites were added onto primers used to amplify the SEAP coding sequence for cloning into the pCR3.1 vector (Invitrogen). The resultant construct pCR3-SEAP was used to create a SEAP-expressing A498 ccRCC cell line. Briefly, pCR3-SEAP plasmid was transfected into A498 ccRCC cells by electroporation following manufacturer's recommendation. Stable transfectants were selected by G418 resistance. Selected A498-SEAP clones were evaluated for SEAP expression and integration stability.
Female athymic nude mice were anesthetized with ˜3% isoflourane and placed in the right lateral decubitus position. A small, 0.5-1 cm, longitudinally abdominal incision in the left flank was made. Using a moist cotton swab, the left kidney was lifted out of the peritoneum and gently stabilized. Just before injection, a 1.0 ml syringe was filled with the cell/Matrigel mixture and a 27 gauge needle catheter was attached to the syringe tip. The filled syringe was then attached to a syringe pump (Harvard Apparatus, model PHD2000) and primed to remove air. The tip of a 27-gauge needle catheter attached to a syringe was inserted just below the renal capsule near the caudal pole and the tip of the needle was then carefully advanced cranially along the capsule 3-4 mm. A 10 μl aliquot of 2:1 (vol:vol) cell/matrigel mixture containing about 300,000 cells was slowly injected into the kidney parenchyma using a syringe pump. The needle was left in the kidney for 15-20 seconds to ensure the injection was complete. The needle was then removed from the kidney and a cotton swab was placed over the injection site for 30 seconds to prevent leakage of the cells or bleeding. The kidney was then gently placed back into the abdomen and the abdominal wall was closed. Serum was collected every 7-14 days after implantation to monitor tumor growth using a commercial SEAP assay kit. For most studies, tumor mice were used 5-6 weeks after implantation, when tumor measurements were typically around 4-8 mm.
RGD targeted HiF2α-RNAi trigger delivery conjugates. Delivery polymers were modified using RGD-PEG-HyNic, RGD-PEG-ACit-PNP, or RDG-PEG-FCitFP-TFP and PEG-dipeptide modifying agents. The indicated amount of polymer 126 or 100A polymer was modified with 8×PEG12-ACit-PABC-PNP/0.5× aldehyde-PEG24-FCit-PABC-PNP (with RGD mimic #1-PEG-HyNic using protocol #1) and the indicated amount of the indicated Hif2α RNAi trigger. Polymer 064 was modified according to protocol 7. Kidney RCC tumor-bearing mice were generated as described and treated with a single tail vein injection of isotonic glucose (G1) or the indicated Hif2α RNAi trigger-delivery polymer conjugate. Mice were euthanized at the indicated time after injection and total RNA was prepared from kidney tumor using Trizol reagent following manufacturer's recommendation. Relative HiF2α mRNA levels were determined by RT-qPCR as described below and compared to mice treated with delivery buffer (isotonic glucose) only.
In preparation for quantitative PCR, total RNA was isolated from tissue samples homogenized in TriReagent (Molecular Research Center, Cincinnati, Ohio) following the manufacturer's protocol. Approximately 500 ng RNA was reverse-transcribed using the High Capacity cDNA Reverse Transcription Kit (Life Technologies). For human (tumor) Hif2α (EPAS1) expression, pre-manufactured TaqMan gene expression assays for human Hif2α (Catalog #4331182) and CycA (PPIA) Catalog #: 4326316E) were used in biplex reactions in triplicate using TaqMan Gene Expression Master Mix (Life Technologies) or VeriQuest Probe Master Mix (Affymetrix). […]

| Substance | Relative Expression day 4 (Hif2α mRNA in kidney tumor) |
| --- | --- |
| AD01255 (antisense TUUCAUGAAAUCGUUACGUTT; sense UAUACGUAACGAUUUCAUGAAAT; Hif2alpha RNAi agent antisense strand; modified_base 2,4,6,8,10,12,14,16,18 /mod_base = “2′-deoxy-2′-fluoro corresponding nucleoside”; modified_base 3,5,7,9,11,13,15,17,19 /mod_base = “2′-O-methyl corresponding nucleoside”; modified_base 21 /mod_base = “5′-phosphorothioate corresponding nucleotide”; Hif2alpha RNAi agent sense strand; modified_base 2 modified base = “2′-hydroxy corresponding nucleoside”; modified_base 4,6,8,10,12,14,16,18,20,22 /mod_base = “2′-deoxy-2′-fluoro corresponding nucleoside”; modified_base 1,3,5,7,9,11,13,15,17,19,21 /mod_base = “2′-O-methyl correspondin g nucleosid) | 0.28 |
| AD01256 (antisense TUUCAUGAAAUCGUUACGUTT; sense ACGUAACGAUUUCAUGAAAT; Hif2alpha RNAi agent antisense strand; modified_base 2,4,6,10,12,14,16,18 /mod_base = “2′-deoxy-2′-fluoro corresponding nucleoside”; modified_base 3,5,7,9,11,13,15,17,19 /mod_base = “2′-O-methyl corresponding nucleoside”; modified_base 8 /mod_base = “2′-3′ seco corresponding nucleotide”; modified_base 21 /mod_base = “5′-phosphorothioate corresponding nucleotide”; Hif2alpha RNAi agent sense strand; modified_base 1,3,5,7,9,11,13,15,17,19 /mod_base = “2′-deoxy-2′-fluoro corresponding nucleoside”; modified_base 2,4,6,8,10,12,14,16,18 /mod_base = “2′-O-methyl corresponding nucleoside”; modified_b) | 0.22 |
| AD01257 (antisense TUUCAUGAAAUCGUUACGUTT; sense ACGUAACGAUUUCAUGAAAT; Hif2alpha RNAi agent antisense strand; modified_base 2,4,6,8,10,12,14,16,18 /mod_base = “2′-deoxy-2′-fluoro corresponding nucleoside”; modified_base 3,5,7,11,13,15,17,19 /mod_base = “2′-O-methyl corresponding nucleoside”; modified_base 9 /mod_base = “2′-3′ seco corresponding nucleotide”; modified_base 21 /mod_base = “5′-phosphorothioate corresponding nucleotide”; Hif2alpha RNAi agent sense strand; modified_base 1,3,5,7,9,11,13,15,17,19 /mod_base = “2′-deoxy-2′-fluoro corresponding nucleoside”; modified_base 2,4,6,8,10,12,14,16,18 /mod_base = “2′-O-methyl corresponding nucleoside”; modified_b) | 0.24 |
| AD01258 (antisense TUUCAUGAAAUCGUUACGUTT; sense ACGUAACGAUUUCAUGAAAT; Hif2alpha RNAi agent antisense strand; modified_base 2,4,6,8,10,12,14,16,18 /mod_base = “2′-deoxy-2′-fluoro corresponding nucleoside”; modified_base 3,5,7,9,11,13,17,19 /mod_base = “2′-O-methyl corresponding nucleoside”; modified_base 15 /mod_base = “2′-3′ seco corresponding nucleotide”; modified_base 21 /mod_base = “5′-phosphorothioate corresponding nucleotide”; Hif2alpha RNAi agent sense strand; modified_base 1,3,5,7,9,11,13,15,17,19 /mod_base = “2′-deoxy-2′-fluoro corresponding nucleoside”; modified_base 2,4,6,8,10,12,14,16,18 /mod_base = “2′-O-methyl corresponding nucleoside”; modified_b) | 0.38 |

same assay, conditions: RNAi trigger 115 μg, polymer 100A 375 μg; single tail vein injection; relative to isotonic glucose

| Substance | Relative Expression day 4 (Hif2α mRNA in kidney tumor) |
| --- | --- |
| AD01288 (antisense TUUCAUGAAAUCGUUACGUTT; sense ACGUAACGAUUUCAUGAAAT; Hif2alpha RNAi agent antisense strand; modified_base 2,4,6,8,10,14,16,18 /mod_base = “2′-deoxy-2′-fluoro corresponding nucleoside”; modified_base 3,5,7,9,11,12,13,15,17,19 /mod_base = “2′-O-methyl corresponding nucleoside”; modified_base 21 /mod_base = “5′-phosphorothioate corresponding nucleotide”; Hif2alpha RNAi agent sense strand; modified_base 1,3,5,7,8,9,11,13,15,17,19 /mod_base = “2′-deoxy-2′-fluoro corresponding nucleoside”; modified_base 2,4,6,10,12,14,16,18 /mod_base = “2′-O-methyl corresponding nucleoside”; modified_base 20 /mod_base = “3′-3′-linked nucleotide”; modified_base 1 /mo) | 0.32 |
| AD01289 (antisense TUUCAUGAAAUCGUUACGUTT; sense ACGUAACGAUUUCAUGAAAT; Hif2alpha RNAi agent antisense strand; modified_base 2,4,6,8,10,12,14,16,18 /mod_base = “2′-deoxy-2′-fluoro corresponding nucleoside”; modified_base 3,5,7,9,11,13,15,17,19 /mod_base = “2′-O-methyl corresponding nucleoside”; modified_base 21 /mod_base = “5′-phosphorothioate corresponding nucleotide”; Hif2alpha RNAi agent sense strand; modified_base 1,3,5,6,7,9,11,13,15,17,19 /mod_base = “2′-deoxy-2′-fluoro corresponding nucleoside”; modified_base 2,4,8,10,12,14,16,18 /mod_base = “2′-O-methyl corresponding nucleoside”; modified_base 20 /mod_base = “3′-3′-linked nucleotide”; modified_base 1 /mo) | 0.28 |
| AD01290 (antisense TUUCAUGAAAUCGUUACGUTT; sense ACGUAACGAUUUCAUGAAAT; Hif2alpha RNAi agent antisense strand; modified_base 2,4,6,8,10,12,14,16,18 /mod_base = “2′-deoxy-2′-fluoro corresponding nucleoside”; modified_base 3,5,7,9,11,13,15,17,19 /mod_base = “2′-O-methyl corresponding nucleoside”; modified_base 21 /mod_base = “5′-phosphorothioate corresponding nucleotide”; Hif2alpha RNAi agent sense strand; modified_base 1,3,7,9,11,13,15,17,19 /mod_base = “2′-deoxy-2′-fluoro corresponding nucleoside”; modified_base 2,4,5,6,8,10,12,14,16,18 /mod_base = “2′-O-methyl corresponding nucleoside”; modified_base 20 /mod_base = “3′-3′-linked nucleotide”; modified_base 1 /mo) | 0.39 |
